Test results taken from US20130273546A1, “LOW TEMPERATURE ENZYME AND METHOD THEREOF” (UNIVERSITI PUTRA MALAYSIA, priority 2009, published 2013).

How the values were obtained:
[1] = system: Leucosporidium antarcticum strain PI12; assay: Growth of the Antarctic isolate on solid media with antibiotics; type: cell-based; details: 10 days at 4° C.
Experimental: Antarctic microorganism isolated strain was grown on different types of solid media (nutrient agar, sabouroud dextrose agar and potato dextrose agar) and several antibiotics for 10 days at 4° C. and the culture characteristics (colony colour, shape, texture) were determined. Simple staining was performed to identify the cell morphology, arrangement and size of the psychrophilic isolate PI12. Scanning electron microscopy (SEM) and transmission electron microscopy (TEM) were also conducted to study the surface features and the internal ultrastructure in thin sections of the PI12 cells. […] The growth for this microorganism was best at 4° C. and decreased through the temperature range tested (4° C.-20° C.) but no growth at over 20° C. […] The Antarctic microorganism strain PI12 was grown and screened qualitatively for the protease production on skim milk agar. The plate was incubated at 4° C. for 10 days. Protease was excreted out of the cells into the surrounding media, catalyzing the breakdown of casein and formed clearing zones around the growth area.

azocasein = assay: Protease activity assay with azocasein as substrate (modified method of Brock et al.), culture supernatants; type: biochemical; details: GpPro2 20.3 U/mL versus wild-type 1.0 U/mL
Experimental: After 10 days of incubation, the supernatant was assayed for protease activity. Protease activity was determined by the modified method of Brock et al. (1982). Azocasein (0.5%, 1 mL) was dissolved in 0.1 M Tris-HCl-2 mM CaCl2 pH 7 was pipetted into vials and pre-incubated at 4° C. The reaction was initiated by addition of 100 μL of enzyme solution for 30 min (unless stated otherwise). An equal volume of 10% (w/v) trichloroacetic acid (TCA) was added to terminate the reaction and the mixture was allowed to stand at room temperature for 30 min before centrifugation in eppendorf microcentrifuge at 13,000×g for 10 min. The supernatant was removed and mixed with an equal volume of 1 N NaOH. The absorbance was read at 450 nm using UV/Visible spectrophotometer Ultraspec 2100 pro (Amersham Biosciences, USA). One unit of azocaseinase activity was defined as the amount of enzyme activity which produces an absorbance change of 0.001 per min at 4° C. under the standard assay condition. For control, the enzyme was added at the end of the incubation period. […]
Assay activity of recombinant PI12 protease was determined by the modified method of Brock et a (1982) the assay activity for recombinant PI12 protease was performed at 15° C.

[2] = Temperature profile and storage stability of the protease activity; type: biochemical

Molecule | resistance of the microorganism toward antibiotic [1] | other results
CC1(C)S[C@@H]2[C@H](NC(=O)[C@H](N)c3ccccc3)C(=O)N2[C@H]1C(=O)O [ampicillin] | resistance | 
CN[C@@H]1[C@H](O[C@H]2[C@H](O[C@H]3[C@H](O)[C@@H](O)[C@H](N=C(N)N)[C@@H](O)[C@@H]3N=C(N)N)O[C@@H](C)[C@]2(O)C=O)O[C@@H](CO)[C@H](O)[C@H]1O [streptamycin] | resistance | 
O=C(N[C@H](CO)[C@H](O)c1ccc([N+](=O)[O-])cc1)C(Cl)Cl [chloramphenicol] | resistance | 
recombinant PI12 protease: cold-adapted serine protease of L. antarcticum PI12 (SEQ ID NO: 2) expressed in Pichia pastoris (protein, listed as Leucosporidium antarcticum) MLFLPVLLLLLPGVTAFLNPVTNRATNAISSTQYLSNAYILELDLSTPGLVKRDSTPDSILEDVLTSVGRNGIKYQLRHRFISPTLFHGASITVPPGISRSQIASLRGIKRVWPVRKFSRPSAVVDADGGGSGFSGSPIKAALMGVKELGKRANAYAGDTFGPHVMTGVNETHEAGLLGAGIKIGVLDTGVDYLNPILGGCFGPGCHMSFGYDLVGDDYDGDNAPVPDVDPFASCDPHGTHVTGIIGALPNAFGFTGVAPAATLGHYRVFGCTGFVGEDIILAGLMRGVEDNCNVLTLSLGGPGGWVKGTPASILIDQIEAQGILVTVATGNSGAEGMFFSESPASTINGLSIASTDVTDLIAYNATVSGQPAIPYLSATPLNVVANSFRVHFTSTDPNNPVDACSPLPAGAPDFANYVTVVQRGTCTFVTKYQNVLNAGGKIVLLYNSEGAGNLPYLTPNGVGIDAVAGLRRSDGLKLLSYYQNANKRLTLRFPKGKIVAGLTDTITGGLISGYSTFGPTNDLYGQPTLSAPGGNILSTFPLSEGGVAVISGTSMSCPFVAGSAAVLMAARASENLTPLEIRSLLTTTAKLTPVSLLGSTPLVSVIRQGGGLVQVAKALAAKTLISPHELLLNDTANANYVQTIKIKNTNSWAMKYTFSSAVAQGLGTFDASGDILPTLDPVAVSGAQATVAFNTRILSVAPGATGSVVATITPPVLPVADAARFPIFSGWIRVNGQGARDSSRNEAYTVPYFGLAAKMIDMQVLDTTETIYGPGYAYPFVIDDAIGDIQSTTTSYSRNLGPTVFARFATGTLHYSLDLVLADIAFTPTYPNSSPATRFVKRSLTQHTSAASHLAKRRVSIATINPKATLVADRQLHSDVPIEGNIFTQPFTGRDYLVDAAPTGSTDRTVTFNGQYAENGLVRTAVTGTSYRFLLRALKISGDAMYEDQYESWLSLPFSFRA |  | recombinant protease activity relative to that produced by wild-type host (azocasein): 20.3 fold
Cold-adapted protease PI12: protease from Leucosporidium antarcticum strain PI12 (NCYC 3391), amino acid sequence SEQ ID NO: 2, GenBank CAQ76821 (protein, listed as Leucosporidium antarcticum) MLFLPVLLLLLPGVTAFLNPVTNRATNAISSTQYLSNAYILELDLSTPGLVKRDSTPDSILEDVLTSVGRNGIKYQLRHRFISPTLFHGASITVPPGISRSQIASLRGIKRVWPVRKFSRPSAVVDADGGGSGFSGSPIKAALMGVKELGKRANAYAGDTFGPHVMTGVNETHEAGLLGAGIKIGVLDTGVDYLNPILGGCFGPGCHMSFGYDLVGDDYDGDNAPVPDVDPFASCDPHGTHVTGIIGALPNAFGFTGVAPAATLGHYRVFGCTGFVGEDIILAGLMRGVEDNCNVLTLSLGGPGGWVKGTPASILIDQIEAQGILVTVATGNSGAEGMFFSESPASTINGLSIASTDVTDLIAYNATVSGQPAIPYLSATPLNVVANSFRVHFTSTDPNNPVDACSPLPAGAPDFANYVTVVQRGTCTFVTKYQNVLNAGGKIVLLYNSEGAGNLPYLTPNGVGIDAVAGLRRSDGLKLLSYYQNANKRLTLRFPKGKIVAGLTDTITGGLISGYSTFGPTNDLYGQPTLSAPGGNILSTFPLSEGGVAVISGTSMSCPFVAGSAAVLMAARASENLTPLEIRSLLTTTAKLTPVSLLGSTPLVSVIRQGGGLVQVAKALAAKTLISPHELLLNDTANANYVQTIKIKNTNSWAMKYTFSSAVAQGLGTFDASGDILPTLDPVAVSGAQATVAFNTRILSVAPGATGSVVATITPPVLPVADAARFPIFSGWIRVNGQGARDSSRNEAYTVPYFGLAAKMIDMQVLDTTETIYGPGYAYPFVIDDAIGDIQSTTTSYSRNLGPTVFARFATGTLHYSLDLVLADIAFTPTYPNSSPATRFVKRSLTQHTSAASHLAKRRVSIATINPKATLVADRQLHSDVPIEGNIFTQPFTGRDYLVDAAPTGSTDRTVTFNGQYAENGLVRTAVTGTSYRFLLRALKISGDAMYEDQYESWLSLPFSFRA |  | optimum temperature [2]: 4 [deg.] C.; enzyme activity retained ([2]; after incubating the enzyme at 4[deg.] C. for about 10 days): One hundred
